In US9409905B2, “Antibacterial compounds and methods for use” (PTC THERAPEUTICS, INC., priority 2011, dated 2016):
≈ marks a conversion by molar mass, not a printed value.

How the values were obtained:
[1] = test system: Escherichia coli (E. coli) BAS849; assay: Antibacterial activity, microbroth dilution MIC (Table 1); assay type: cell-based; details: microbroth dilution, super sensitive Gram-negative E. coli BAS849, read-out: MIC, BAS849
Text: (§1) The antibacterial activity from a microbroth dilution method may be presented as the minimum inhibitory concentration (MIC in μg/mL). The MIC value is the lowest concentration of drug which prevents macroscopically visible growth under test conditions.
(§2) Antibacterial activity of test compounds against the super sensitive Gram-negative Escherichia coli (E. coli) BAS849 bacterium, the control Gram-negative E. coli 25922 strain and the Gram-positive Staphylococcus aureus (S. aureus) 29213 bacterium are shown in Table 1.

[2] = test system: Staphylococcus aureus (S. aureus) 29213; assay: as above; assay type: cell-based; details: microbroth dilution, Gram-positive S. aureus 29213, read-out: MIC, 29213
Text: as §1, §2

[3] = test system: E. coli 25922; assay: as above; assay type: cell-based, Escherichia coli; details: Escherichia coli; microbroth dilution; control Gram-negative E. coli 25922 strain; read-out: MIC, 25922
Text: as §1, §2

[4] = test system: E. coli LZ3111; assay: Antibacterial activity, MIC, quinolone resistant strain (Table 2); assay type: cell-based; details: Escherichia coli, LZ3111, read-out: MIC LZ3111
Text: as §1
Mutations in these regions are known to confer a high level resistance to the quinolone class of antibiotics.

| SMILES | MIC [1] | MIC [2] | MIC [3] | MIC [4] |
| --- | --- | --- | --- | --- |
| CCc1c(-c2ccc3c(c2)c2c(n3C)CCCC2)[nH]c(=O)c(C(=O)O)c1O [Cpd 28, 5-ethyl-4-hydroxy-6-(9-methyl-2,3,4,9-tetrahydro-1H-carbazol-6-yl)-2-oxo-1,2-dihydropyridine-3-carboxylic acid] | 12.5 to 150 µg/mL (≈ 34.1 to 409 µM) | < 1 µg/mL | 12.5 to 150 µg/mL (≈ 34.1 to 409 µM) | 12.5 to 150 µg/mL (≈ 34.1 to 409 µM) |
| CCc1cc(C(=O)O)c(=O)[nH]c1-c1ccc2c(c1)c(CN(CC)CC)cn2C [Cpd 76, 6-(3-((diethylamino)methyl)-1-methyl-1H-indol-5-yl)-5-ethyl-2-oxo-1,2-dihydropyridine-3-carboxylic acid] | 12.5 to 150 µg/mL (≈ 32.8 to 393 µM) | 12.5 to 150 µg/mL (≈ 32.8 to 393 µM) | 12.5 to 150 µg/mL (≈ 32.8 to 393 µM) | 12.5 to 150 µg/mL (≈ 32.8 to 393 µM) |
| CCc1c(-c2ccc3nc(-c4ccccc4)oc3c2)[nH]c(=O)c(C(=O)O)c1O [Cpd 16, 5-ethyl-4-hydroxy-2-oxo-6-(2-phenylbenzo[d]oxazol-6-yl)-1,2-dihydropyridine-3-carboxylic acid] | 3.5 to 12.5 µg/mL (≈ 9.3 to 33.2 µM) | 1 to 3.5 µg/mL (≈ 2.66 to 9.3 µM) | 12.5 to 150 µg/mL (≈ 33.2 to 399 µM) | – |
| CCc1cc(C(=O)O)c(=O)[nH]c1-c1ccc2nc(CN(CC)CC)cn2c1.Cl.Cl [Cpd 63, 6-(2-((diethylamino)methyl)imidazo[1,2-a]pyridin-6-yl)-5-ethyl-2-oxo-1,2-dihydropyridine-3-carboxylic acid dihydrochloride] | 12.5 to 150 µg/mL | 12.5 to 150 µg/mL | 12.5 to 150 µg/mL | 12.5 to 150 µg/mL |
| CCc1cc(C(=O)O)c(=O)[nH]c1-c1ccc2nc(-c3ccccc3)oc2c1 [Cpd 15, 5-ethyl-2-oxo-6-(2-phenylbenzo[d]oxazol-6-yl)-1,2-dihydropyridine-3-carboxylic acid] | 1 to 3.5 µg/mL (≈ 2.77 to 9.71 µM) | 12.5 to 150 µg/mL (≈ 34.7 to 416 µM) | 12.5 to 150 µg/mL (≈ 34.7 to 416 µM) | – |
| CCc1cc(C(=O)O)c(=O)[nH]c1-c1ccc2c(c1)c1c(n2C)CCCC1 [Cpd 27, 5-ethyl-6-(9-methyl-2,3,4,9-tetrahydro-1H-carbazol-6-yl)-2-oxo-1,2-dihydropyridine-3-carboxylic acid] | < 1 µg/mL | 3.5 to 12.5 µg/mL (≈ 9.99 to 35.7 µM) | 12.5 to 150 µg/mL (≈ 35.7 to 428 µM) | – |
| CCc1c(-c2ccc3c(ccn3CC3OCCO3)c2)[nH]c(=O)c(C(=O)O)c1O [Cpd 26, 6-(1-((1,3-dioxolan-2-yl)methyl)-1H-indol-5-yl)-5-ethyl-4-hydroxy-2-oxo-1,2-dihydropyridine-3-carboxylic acid] | < 1 µg/mL | 3.5 to 12.5 µg/mL (≈ 9.11 to 32.5 µM) | 12.5 to 150 µg/mL (≈ 32.5 to 390 µM) | – |
| CC(C)c1c(-c2ccc3c(ccn3C)c2)[nH]c(=O)c(C(=O)O)c1O [Cpd 34, 4-hydroxy-5-isopropyl-6-(1-methyl-1H-indol-5-yl)-2-oxo-1,2-dihydropyridine-3-carboxylic acid] | < 1 µg/mL | 1 to 3.5 µg/mL (≈ 3.06 to 10.7 µM) | 3.5 to 12.5 µg/mL (≈ 10.7 to 38.3 µM) | – |
| CCc1cc(C(=O)O)c(=O)[nH]c1-c1ccc2c(c1)c(C)c(C)n2C [Cpd 29, 5-ethyl-2-oxo-6-(1,2,3-trimethyl-1H-indol-5-yl)-1,2-dihydropyridine-3-carboxylic acid] | < 1 µg/mL | 12.5 to 150 µg/mL (≈ 38.5 to 462 µM) | 12.5 to 150 µg/mL (≈ 38.5 to 462 µM) | – |
| CCc1cc(C(=O)O)c(=O)[nH]c1-c1ccc2c(ccn2CC2OCCO2)c1 [Cpd 25, 6-(1-((1,3-dioxolan-2-yl)methyl)-1H-indol-5-yl)-5-ethyl-2-oxo-1,2-dihydropyridine-3-carboxylic acid] | < 1 µg/mL | 12.5 to 150 µg/mL (≈ 33.9 to 407 µM) | 12.5 to 150 µg/mL (≈ 33.9 to 407 µM) | – |
| CCc1cc(C(=O)O)c(=O)[nH]c1-c1ccc2nc(N(C)C)oc2c1 [Cpd 17, 6-(2-(dimethylamino)benzo[d]oxazol-6-yl)-5-ethyl-2-oxo-1,2-dihydropyridine-3-carboxylic acid] | 3.5 to 12.5 µg/mL (≈ 10.7 to 38.2 µM) | 1 to 3.5 µg/mL (≈ 3.05 to 10.7 µM) | 12.5 to 150 µg/mL (≈ 38.2 to 458 µM) | – |
| CCc1cc(C(=O)O)c(=O)[nH]c1-c1cn(C)c2ccccc12 [Cpd 13, 5-ethyl-6-(1-methyl-1H-indol-3-yl)-2-oxo-1,2-dihydropyridine-3-carboxylic acid] | 3.5 to 12.5 µg/mL (≈ 11.8 to 42.2 µM) | 12.5 to 150 µg/mL (≈ 42.2 to 506 µM) | 12.5 to 150 µg/mL (≈ 42.2 to 506 µM) | – |
| CCc1cc(C(=O)O)c(=O)[nH]c1-c1ccc2ncccc2c1 [Cpd 19, 5-ethyl-2-oxo-6-(quinolin-6-yl)-1,2-dihydropyridine-3-carboxylic acid] | 12.5 to 150 µg/mL (≈ 42.5 to 510 µM) | 12.5 to 150 µg/mL (≈ 42.5 to 510 µM) | 12.5 to 150 µg/mL (≈ 42.5 to 510 µM) | – |
